The subject of data set [1] is LoVo. The experiment in a line: In vitro cellular anti-proliferation assay (ATPlite), LoVo. The settings on record: Homo sapiens, about 72 hours, 5% FBS. The format is cell-based. The protocol: (§1) Cell antiproliferation was assayed by PerkinElmer ATPlite™ Luminescence Assay System. Briefly, the various test cancer cell lines were plated at a density of about 1×10^4 cells per well in Costar 96-well plates, and were incubated with different concentrations of compounds for about 72 hours in medium supplemented with 5% FBS. One lyophilized substrate solution vial was then reconstituted by adding 5 mL of substrate buffer solution, and was agitated gently until the solution was homogeneous. About 50 μL of mammalian cell lysis solution was added to 100 μL of cell suspension per well of a microplate, and the plate was shaken for about five minutes in an orbital shaker at ˜700 rpm. This procedure was used to lyse the cells and to stabilize the ATP. Next, 50 μL substrate solution was added to the wells and microplate was shaken for five minutes in an orbital shaker at ˜700 rpm. Finally, the luminescence was measured by a PerkinElmer TopCount® Microplate Scintillation Counter. Such assays, carried out with a range of doses of test compounds, allowed the determination of the cellular anti-antiproliferative IC50 of the compounds of the present invention.
(§2) The following table lists the LoVo IC50 values of another study for certain compounds of the invention.
On the technique in general: ATP-based viability assays read luminescence as a measure of living cells.

Data set [2] deals with WEE1. To be noted: inhibits WEE1 activity, induces DNA damage and G2 checkpoint escape; read-out: EC50 in cell based assays; cited from earlier work.
For data set [3], the system named is SK-MES-1. As to the kind of experiment: In vitro cellular anti-proliferation assay (ATPlite), SK-MES-1. Format: cell-based. The settings on record: Homo sapiens, about 72 hours, 5% FBS. How it is done: as §1, §2
Data set [4] relates to A498. The experiment in a line: In vitro cellular anti-proliferation assay (ATPlite), A498. Format: cell-based. The settings on record: Homo sapiens, about 72 hours, 5% FBS. How it is done: as §1, §2
The nature of data set [5]: Mice CNS PK study. Format: in vivo. To be noted: CD-1 mouse; for AUC(0-t): plasma, read-out: Plasma AUClast; for Kp: brain/plasma (printed as Brain/Blood), read-out: Brain/Blood Ratio. How it is done: The pharmacokinetics of compounds were evaluated in CD-1 mouse via Intravenous and Oral Administration. The iv dose was administered as a slow bolus in the Jugular vein, and oral doses were administered by gavage. The formulation for IV dosing is 5% DMSO in “20% HPBCD in water, and the PO formulation is 2.5% DMSO, 10% EtOH, 20% Cremphor EL, 67.5% D5W. The PK time point for the IV arm is 5, 15, 30 min, 1, 2, 4, 6, 8, 12, 24 hours post dose, and for PO arm is 15, 30 min, 1, 2, 4, 6, 8, 12, 24 hours post dose.
Plasma Samples Processing and Storage: Approximately 0.2 mL blood will be collected at each time point. Keep blood at room temperature and collect plasma within 15 min by centrifugation at 4000 g for 5 minutes in a 4° C. centrifuge. Plasma samples will be stored in polypropylene tubes. The plasma samples will be stored in a freezer at −75±15° C. prior to analysis.
Brain Samples Processing and Storage: The mice will be fully exsanguinated prior to tissue collection. Procedure: open chest cavity, cut ventricle and perform a gentle iv saline flush (saline flush volume ˜10 ml) with the animal placed head down at a 45 degree angle to facilitate blood removal. Tissue samples will be collected at adopted time point, quick frozen in ice box and kept at −75±15° C. All tissue samples will be weighted and homogenized with water by tissue weight (g) to water volume (mL) at ratio 1:3 before analysis. The actual concentration is the detected value multiplied by the dilution factor.
Concentrations of compounds in the plasma samples will be analyzed using a LC-MS/MS method. WinNonlin (Phoenix™, version 6.1) or other similar software will be used for pharmacokinetic calculations. The following pharmacokinetic parameters will be calculated, whenever possible from the plasma concentration versus time data: IV administration: C0, CL, Vd, T1/2, AUCinf, AUClast, MRT, Number of Points for Regression; PO administration: Cmax, Tmax, T1/2, AUCinf, AUClast, F %, Number of Points for Regression. The pharmacokinetic data will be described using descriptive statistics such as mean, standard deviation. Additional pharmacokinetic or statistical analysis may be performed at the discretion of the contributing scientist, and will be documented in the data summary.

For data set [6], the system named is tumor. As to the kind of experiment: In vivo xenograft study. On the set-up: species or system CB.17 SCID mice. The settings on record: 7 dose at 100 mg/kg, day 18. An excerpt: The CB.17 SCID mice are obtained at age 6-8 weeks from vendors and acclimated for a minimum 7-day period. The cancer cells are then implanted into the […] mice. Depending on the specific tumor type, tumors are typically detectable about two weeks following implantation. When tumor sizes reach ˜100-200 mm^3, the animals with appreciable tumor size and shape are randomly assigned into groups of 8 mice each, including one vehicle control group and treatment groups. Dosing varies depending on the purpose and length of each study, which typically proceeds for about 3-4 weeks. Tumor sizes and body weight are typically measured three times per week. In addition to the determination of tumor size changes, the last tumor measurement is used to generate the tumor size change ratio (T/C value), a standard metric developed by the National Cancer Institute for xenograft tumor evaluation. […] When tumor regression occurred (ΔT<0), however, the following formula is used: % T/T0=100×ΔT/T0.

The target in data set [7] is Wee1 kinase (Homo sapiens (Human), UniProt P30291). As to the kind of experiment: Wee-1 biochemical assay. To be noted: another study. The protocol: In determination of the Weel kinase activity, a synthetic peptide, Poly(Lys,Tyr) Hydrobromide (Lys:Tyr (4:1)) bought from Sigma was used as the substrate. The amount of the reaction mixture was 21.1 μL; and the composition of the reaction buffer was 50 mM Tris-HCl buffer (pH 7.4)/10 mM magnesium chloride/1 mM dithiothreitol. The purified Weel kinase, 2.5 μg of the substrate peptide, 10 μM of non-labeled adenosine triphosphate (ATP) and 1 μCi of [γ-^33P]-labeled ATP (2500 Ci/mmol or more) were added to it, and incubated at 30° C. for 30 minutes. Next, 10 μL of 350 mM phosphate buffer was added to the reaction mixture to stop the reaction. The substrate peptide was adsorbed by a P81 paper filter 96-well plate, then washed a few times with 130 mM phosphate buffer, and its radioactivity was counted with a liquid scintillation counter. The [γ-^33P]-labeled ATP was bought from Amersham Bioscience. To add the test compound to the reaction system, the compound was diluted with dimethylsulfoxide (DMSO) to prepare a series of dilutions. 1.1 μL of each dilution was added to the reaction system. As a control, 1.1 μL of DMSO was added to the reaction system. Such assays, carried out with a range of doses of test compounds, allow the determination of the Wee1 IC50 of the compounds of the present invention
Wee1 kinase, sequence (P30291 whole entry): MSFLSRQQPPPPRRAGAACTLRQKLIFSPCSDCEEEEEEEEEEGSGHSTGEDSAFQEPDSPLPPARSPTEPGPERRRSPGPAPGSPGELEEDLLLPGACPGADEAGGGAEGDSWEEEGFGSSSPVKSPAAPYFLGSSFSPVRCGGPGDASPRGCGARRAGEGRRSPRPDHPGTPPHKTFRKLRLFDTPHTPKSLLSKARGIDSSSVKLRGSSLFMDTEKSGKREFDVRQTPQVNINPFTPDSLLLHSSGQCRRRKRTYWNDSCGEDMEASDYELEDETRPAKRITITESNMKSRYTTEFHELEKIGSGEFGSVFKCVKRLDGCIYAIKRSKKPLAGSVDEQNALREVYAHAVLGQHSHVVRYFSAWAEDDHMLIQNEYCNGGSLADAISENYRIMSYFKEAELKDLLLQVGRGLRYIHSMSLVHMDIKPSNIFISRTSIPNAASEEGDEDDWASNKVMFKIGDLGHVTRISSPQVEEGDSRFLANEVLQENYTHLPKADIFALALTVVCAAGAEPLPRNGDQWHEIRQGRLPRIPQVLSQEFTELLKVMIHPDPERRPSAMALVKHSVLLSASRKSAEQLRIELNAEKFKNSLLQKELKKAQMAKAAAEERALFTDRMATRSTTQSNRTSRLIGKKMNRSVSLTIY

Regarding `C=CCn1c(=O)c2cnc(Nc3ccc(N4CCN(C)CC4)cc3)nc2n1-c1cccc(C(C)(C)O)n1` [AZD1775, reference compound], the IC50 (commonly the concentration that inhibits the measured activity by half) was less than 300 nM in data set [1], less than 250 nM in data set [3] and less than 500 nM in data set [4]. In addition, the EC50 (commonly the concentration at which the effect is half-maximal) in data set [2] is […]. Besides, the “Brain AUClast” value in data set [5] turned out to be 524 ng·h/mL. Besides, in data set [5], the AUC(0-t) was determined as 9000 ng·h/mL. The Kp in data set [5] was 0.058.

With `C=CCn1c(=O)c2cnc(Nc3cnn(C4CCN(C5CCC(F)(F)CC5)CC4)c3)nc2n1-c1cccc(C(C)(C)O)n1.Cl` [Example 3, 6-([1-[1-(4,4-difluorocyclohexyl)piperidin-4-yl]-1H-pyrazol-4-yl]amino)-1-[6-(2-hydroxypropan-2-yl)pyridin-2-yl]-2-(prop-2-en-1-yl)-1H,2H,3H-pyrazolo[3,4-d]pyrimidin-3-one Hydrochloride], in data set [6], the tumor regression entry is reported as “complete regression of the tumor”.

Take `CC(C)n1c(=O)c2cnc(Nc3ccc(N4CCN(C)CC4)cc3)nc2n1-c1cccc(C(C)(C)C(F)(F)F)n1` [Example 11, 2-isopropyl-6-((4-(4-methylpiperazin-1-yl)phenyl)amino)-1-(6-(1,1,1-trifluoro-2-methylpropan-2-yl)pyridin-2-yl)-1,2-dihydro-3H-pyrazolo[3,4-d]pyrimidin-3-one]: the IC50 in data set [1] is less than 300 nM; in data set [3], less than 250 nM; in data set [7] it was less than 1.5 nM; in data set [4] it was less than 500 nM. For the same compound, in data set [5], the “Brain AUClast” value is listed as 12,002 h*ng/mL. Also, in data set [5], the AUC(0-t) amounted to 7510 ng·h/mL. For the same compound, the Kp in data set [5] came out at 1.6.

In the case of `CC(C)n1c(=O)c2cnc(Nc3ccc(N4CCN(C)CC4)cc3)nc2n1-c1cccc(C(C)(C)F)n1` [Example 13, 1-(6-(2-fluoropropan-2-yl)pyridin-2-yl)-2-isopropyl-6-((4-(4-methylpiperazin-1-yl)phenyl)amino)-1,2-dihydro-3H-pyrazolo[3,4-d]pyrimidin-3-one], the IC50 in data set [1] is less than 300 nM; in data set [3], less than 250 nM; in data set [7] it was less than 1.5 nM; in data set [4], less than 500 nM. Further, the “Brain AUClast” value in data set [5] is given as 11,907 h*ng/mL. The AUC(0-t) in data set [5] came to 8660 ng·h/mL. The Kp in data set [5] came out at 1.38.

Turning to `CC(C)n1c(=O)c2cnc(Nc3ccc(N4CCN(C)CC4)cc3)nc2n1-c1cccc(C2CC2)n1` [Example 15, 1-(6-cyclopropylpyridin-2-yl)-2-isopropyl-6-((4-(4-methylpiperazin-1-yl)phenyl)amino)-1,2-dihydro-3H-pyrazolo[3,4-d]pyrimidin-3-one], the IC50 was less than 300 nM in data set [1], less than 250 nM in data set [3], less than 1.5 nM in data set [7] and less than 500 nM in data set [4]. Further, in data set [5], the “Brain AUClast” value was 4,910 h*ng/mL. Further, the AUC(0-t) in data set [5] is 4710 ng·h/mL. Moreover, the Kp in data set [5] worked out at 1.

Source of the values: US11479555B2, “Substituted 1,2-dihydro-3H-pyrazolo[3,4-D]pyrimidin-3-ones as inhibitors of WEE-1 kinase” (Newave Pharmaceutical Inc., priority 2018, dated 2022).
